Here are results for ten compounds from ChEMBL document CHEMBL5537178, “Discovery of TP0628103: A Highly Potent and Selective MMP-7 Inhibitor with Reduced OATP-Mediated Clearance Designed by Shifting Isoelectric Points” (J Med Chem, 2024).

A short description of series [1]: Chemical stability of the compound in pH 4 aqueous solution assessed as degradation by measuring residual rate incubated for 24 hrs at 65 degC by HPLC analysis. Particulars: read-out: Activity. The series is classed as physicochemical.
Series [2] can be described thus: Chemical stability of the compound in pH 7.4 aqueous solution assessed as degradation by measuring residual rate incubated for 24 hrs at 65 degC by HPLC analysis. The format is physicochemical. To be noted: read-out: Activity.
A short description of series [3]: Total clearance in CL57BL/6J mouse at 0.25 mg/kg, iv measured upto 24 hrs by LCMS/MS analysis. The format is ADME, organism-based. To be noted: in vivo.
Series [4] in a line: Volume of distribution at steady state in CL57BL/6J mouse at 0.25 mg/kg, iv measured upto 24 hrs by LCMS/MS analysis. The format is ADME, organism-based. Particulars: in vivo, read-out: Vdss.
Series [5] can be described thus: Lipophilicity, logD of compound at pH 7.4. The format is physicochemical. To be noted: buffer.
Series [6] can be described thus: Volume of distribution at steady state in cynomolgus monkey at 0.25 mg/kg, iv pretreated with rifampicin 20 mg/kg, po 1 hr before. The series is classed as ADME, organism-based, Macaca fascicularis. To be noted: in vivo, read-out: Vdss.
Series [7] is described as follows: Urinary excretion rate in rat at 1 mg/kg, iv. The format is ADME, organism-based. Particulars: urine, read-out: Activity.
Series [8] can be described thus: Stability of the compound in rat liver S9 fraction. The format is ADME, subcellular.
Series [9] in a line: Volume of distribution at steady state in cynomolgus monkey at 0.25 mg/kg, iv. The series is classed as ADME, organism-based, Macaca fascicularis. Particulars: in vivo, read-out: Vdss.
A short description of series [10]: Total clearance in cynomolgus monkey at 0.25 mg/kg, iv. To be noted: in vivo. The series is classed as ADME, organism-based, Macaca fascicularis.
A short description of series [11]: Total clearance in cynomolgus monkey at 0.25 mg/kg, iv pretreated with rifampicin 20 mg/kg, po 1 hr before. The format is ADME, organism-based, Macaca fascicularis. Particulars: in vivo.

Starred links: 1 amine or outer side, 2 acyl side, 3 side chain; linkers in the order of their positions; H or OH if unused. Non-standard residues stand in square brackets, D forms with d. Residues, ends and D or L forms follow the SMILES beside them. *: point of attachment. Benzenesulfonyl(4-Cl,3-CF3) = O=S(=O)(c1ccc(Cl)c(C(F)(F)F)c1)*; γGlu = O=C(O)[C@H](CCC(=O)[*:2])N[*:1]; 4Pal = N[C@@H](Cc1ccncc1)C(=O)O; Tle = CC(C)(C)[C@H](N)C(=O)O; β3hP = O=C(O)C[C@@H]1CCCN1 Where only a bound is given, the exact number is not on record here.

In the case of `CC(C)(C)[C@H](NC(=O)[C@H](Cc1ccncc1)NC(=O)CNC(=O)CC[C@H](NS(=O)(=O)c1ccc(Cl)c(C(F)(F)F)c1)C(=O)O)C(=O)Nc1ccc(C(=O)N2CCC(C(=O)N[C@H](CCCNC(=N)N)C(=O)NCCN)CC2)cc1`, the remaining at 24 h in series [1] is 98.8%; in series [2], 88.7%.

As for `CC(C)(C)[C@H](NC(=O)[C@H](Cc1ccncc1)NC(=O)CNC(=O)CC[C@H](NS(=O)(=O)c1ccc(Cl)c(C(F)(F)F)c1)C(=O)O)C(=O)Nc1ccc(C(=O)O)cc1`, the clearance in series [3] was 12 L/h/kg. For the same compound, the Vd in series [4] stood at 2.48 L/kg.

Broadly, the logD is the decadic logarithm of the distribution of all forms, ionised or not, between an organic phase and buffer at a given pH. As for `CC(C)c1nc(N(C)S(C)(=O)=O)nc(-c2ccc(F)cc2)c1/C=C/[C@@H](O)C[C@@H](O)CC(=O)O` [ROSUVASTATIN], in series [5], the logD is on record as -1.9.

With `CC(C)(C)[C@H](NC(=O)[C@H](Cc1ccncc1)NC(=O)CNC(=O)CC[C@H](NS(=O)(=O)c1ccc(Cl)c(C(F)(F)F)c1)C(=O)O)C(=O)Nc1ccc(C(=O)N2CCC(C(=O)N[C@H](CCCCN)C(=O)N3C[C@@H](N)C[C@H]3C(N)=O)CC2)cc1`, the remaining at 24 h in [1] was found to be 97%; in [2], 96.2%.

`COc1ccccc1Oc1c(NS(=O)(=O)c2ccc(C(C)(C)C)cc2)nc(-c2ncccn2)nc1OCCO` [BOSENTAN] registered a logD in [5] of 2.4.

`CN(C)CCCC[C@H](NC(=O)CCN)C(=O)N1CCN(C(=O)c2ccc(NC(=O)[C@@H](NC(=O)[C@H](Cc3ccncc3)NC(=O)CNC(=O)CC[C@H](NS(=O)(=O)c3ccc(Cl)c(C(F)(F)F)c3)C(=O)O)C(C)(C)C)cc2)CC1`: the remaining at 24 h came out at 100% in series [1] and 93.7% in series [2].

Consider `CC(C)(C)[C@H](NC(=O)[C@H](Cc1ccncc1)NC(=O)CNC(=O)CC[C@H](NS(=O)(=O)c1ccc(Cl)c(C(F)(F)F)c1)C(=O)O)C(=O)Nc1ccc(C(=O)N2CCC(C(=O)N[C@H](CCCCN)C(=O)NCCN)CC2)cc1`, for which the results for the remaining at 24 h in series [1] and in [2] were 99.6% and 90.5%, respectively.

In the case of `CC(C)(C)[C@H](NC(=O)[C@H](Cc1ccncc1)NC(=O)CNC(=O)CC[C@H](NS(=O)(=O)c1ccc(Cl)c(C(F)(F)F)c1)C(=O)O)C(=O)N1CCC[C@H]1CC(N)=O` ({Benzenesulfonyl(4-Cl,3-CF3)-γGlu}-G[4Pal][Tle][β3hP]-NH2), the results for the Vd in series [6] and in series [9] were 0.208 L/kg and 0.283 L/kg, respectively. Also, the dose excreted in series [7] came out at 5%. The Stability in [8] is listed as < 10%. Also, the clearance in series [10] was 1.47 L/h/kg; in series [11], 0.547 L/h/kg.

As for `CC(C)(C)[C@H](NC(=O)[C@H](Cc1ccncc1)NC(=O)CNC(=O)CC[C@H](NS(=O)(=O)c1ccc(Cl)c(C(F)(F)F)c1)C(=O)O)C(=O)Nc1ccc(C(=O)NCC2(N)CCNCC2)cc1`, the remaining at 24 h stood at 95.6% in series [1] and 86.4% in series [2].

In series [3], `CC(C)(C)[C@H](NC(=O)[C@H](Cc1ccncc1)NC(=O)CNC(=O)CC[C@H](NS(=O)(=O)c1ccc(Cl)c(C(F)(F)F)c1)C(=O)O)C(=O)Nc1ccc(C(=O)N2CCN(C(=O)[C@@H](N)CCCN)CC2)cc1` gave a clearance of 2.48 L/h/kg. Moreover, the remaining at 24 h in [1] stood at 88.6%; in series [2] it was 58.7%. Also, the Vd in series [4] was 0.185 L/kg.
